The test concerns HeLa MCTS. The test can be described thus: MCTS imaging and cytotoxicity (penetration, PI staining). The settings on record: 10 μM 1 h, then 24 h. The format is cell-based, human. As to the method:
Supplementary Figure 25. Flow cytometric analysis of HeLa cell death. (a) Gating strategy applied for flow cytometric analysis. (b) Representative flow cytometric analysis of HeLa cells by Annexin V-FITC/PI staining. HeLa cells were treated with PBS, CDDP, PtIVNPs or P-CyPt (20 μM) for 2 h, washed with cold PBS for three times, and then continued incubation in refresh blank DMEM medium for another 48 h. The cells were then stained with the Annexin V-FITC/PI kit, and analyzed by flow cytometry. One representative experiment out of two is shown.
Supplementary Figure 26. Evaluation of the penetration and cytotoxicity of PtIVNPs toward HeLa MCTS. MCTS were incubated with PtIVNPs (10 μM) for 1 h, then washed with PBS buffer for three times, followed by incubation for another 24 h.
The MCTs were then co-stained with PI. […]
μm. […] The fluorescence images of the MCTS were captured on a Leica TCS SP8 confocal laser scanning microscope, microscope (TCS SP8 STED 3X) with 10x/0.4 dry lens (Leica), and captured at RGB on a HyD detector (Leica Dmi8) under PI and Cy5.5 channels. […]
were sacrificed after 4 h. […] The fluorescence images of these organs and tumors were acquired with the IVIS Lumina XR III imaging system using a 660 nm excitation filter and a 750 ± 50 nm emission filter. […]

The record followed here is publication PMC9925730, “Controlled sequential in situ self-assembly and disassembly of a fluorogenic cisplatin prodrug for cancer theranostics” (Nature Communications, 2023).

`CC1(C)C(/C=C/C2=C3Oc4cc(OP(=O)(O)O)c(Cl)cc4C=C3CCC2)=[N+](CCCNC(=O)[C@@H](Cc2ccccc2)NC(=O)[C@@H](Cc2ccccc2)NC(=O)CCC(=O)[O][Pt]([NH2])([NH2])([OH])([Cl])[Cl])c2ccccc21` [P-CyPt]: the “penetration / cell-kill depth in MCTS” value was ~ 200 μm.
